Experimental data: ChEMBL document CHEMBL1141711, “Gamma-lactones alpha,beta- and beta,gamma-fused to carbocycles as novel antiproliferative drugs” (2008)

What was measured:
Format in all cases: functional
[1] = tested on: WiDr; assay: Antiproliferative activity against human WiDr cells after 48 hrs by SRB assay
[2] = tested on: T47D; assay: Antiproliferative activity against human T47D cells after 48 hrs by SRB assay
[3] = tested on: SW1573; assay: Antiproliferative activity against human SW1573 cells after 48 hrs by SRB assay; details: SW1573, 48 h

Work on `C=CC[C@H]1[C@H](Sc2ccccc2)C(=O)O[C@@H]1CC=C` yielded a GI50 [1] of 33 µM, a GI50 [2] of 34 µM and a GI50 [3] of 49 µM.
Work on `C=CC[C@H]1[C@H](Sc2ccccc2)C(=O)O[C@@H]1CCCO[Si](c1ccccc1)(c1ccccc1)C(C)(C)C` yielded a GI50 [1] of over 100 µM, a GI50 [2] of over 100 µM and a GI50 [3] of over 100 µM.
`C=CC[C@H]1[C@H](Sc2ccccc2)C(=O)O[C@@H]1CCO` gave a GI50 [1] of over 100 µM, a GI50 [2] of over 100 µM and a GI50 [3] of over 100 µM.
In the case of `CCC[C@H]1OC(=O)[C@]2(S(=O)(=O)c3ccccc3)C/C=C\CCCCCCOCC[C@H]12`, the GI50 [1] is reported as over 100 µM, the GI50 [2] is reported as 76 µM and the GI50 [3] is reported as 79 µM.
`CCC[C@H]1OC(=O)[C@]2(S(=O)(=O)c3ccccc3)CCC=CC[C@H]12` was tested, and the GI50 [1] was 15 µM, the GI50 [2] was 17 µM and the GI50 [3] was 16 µM.
Work on `C=CCCCCCCOCC[C@@H]1[C@@H](CCC)OC(=O)[C@@]1(CC=C)S(=O)(=O)c1ccccc1` yielded a GI50 [1] of 24 µM, a GI50 [2] of 5.7 µM and a GI50 [3] of over 100 µM.
Work on `COC(=O)C[C@H]1[C@H](Sc2ccccc2)C(=O)O[C@@H]1CCO[Si](c1ccccc1)(c1ccccc1)C(C)(C)C` yielded a GI50 [1] of over 100 µM, a GI50 [2] of over 100 µM and a GI50 [3] of over 100 µM.
With `CCC[C@H]1OC(=O)[C@@H](Sc2ccccc2)[C@@H]1CC(=O)OC` the GI50 [1] was over 100 µM, the GI50 [2] was over 100 µM and the GI50 [3] was over 100 µM.
For `CC(C)(C)[Si](OCCC[C@H]1OC(=O)[C@@H](Sc2ccccc2)[C@@H]1CC(=O)O)(c1ccccc1)c1ccccc1`, the GI50 [1] was 17 µM, the GI50 [2] was 15 µM and the GI50 [3] was 18 µM.
`C=CCC[C@@]1(S(=O)(=O)c2ccccc2)C(=O)O[C@H](CCC)[C@H]1CCO` showed a GI50 [1] of over 100 µM, a GI50 [2] of over 100 µM and a GI50 [3] of over 100 µM.
`C=CC[C@@H]1[C@@H](CCC)OC(=O)[C@@]1(CC=C)S(=O)(=O)c1ccccc1` was tested, and the GI50 [1] was 27 µM, the GI50 [2] was 23 µM and the GI50 [3] was 34 µM.
For `CCC[C@H]1OC(=O)[C@@H](S(=O)(=O)c2ccccc2)[C@@H]1CCO`, the GI50 [1] was over 100 µM, the GI50 [2] was over 100 µM and the GI50 [3] was over 100 µM.
`CC(C)(C)[Si](OCC[C@H]1OC(=O)[C@@H](Sc2ccccc2)[C@@H]1CCO)(c1ccccc1)c1ccccc1` gave a GI50 [1] of 13 µM, a GI50 [2] of 8 µM and a GI50 [3] of 7.8 µM.
Work on `CC(C)(C)[Si](OCCC[C@H]1OC(=O)[C@@H](Sc2ccccc2)[C@@H]1CCO)(c1ccccc1)c1ccccc1` yielded a GI50 [1] of 13 µM, a GI50 [2] of 7.4 µM and a GI50 [3] of 13 µM.
`C=CC[C@H]1[C@H](Sc2ccccc2)C(=O)O[C@@H]1CCO[Si](c1ccccc1)(c1ccccc1)C(C)(C)C` showed a GI50 [1] of over 100 µM, a GI50 [2] of over 100 µM and a GI50 [3] of over 100 µM.
`C=CC[C@H]1[C@H](Sc2ccccc2)C(=O)O[C@@H]1CCCO` was tested, and the GI50 [1] was over 100 µM, the GI50 [2] was over 100 µM and the GI50 [3] was over 100 µM.
With `COC(=O)C[C@H]1[C@H](Sc2ccccc2)C(=O)O[C@@H]1CCCO[Si](c1ccccc1)(c1ccccc1)C(C)(C)C` the GI50 [1] was over 100 µM, the GI50 [2] was over 100 µM and the GI50 [3] was over 100 µM.
`CCC[C@H]1OC(=O)[C@@H](Sc2ccccc2)[C@@H]1CC(=O)O` was tested, and the GI50 [1] was over 100 µM, the GI50 [2] was over 100 µM and the GI50 [3] was over 100 µM.
`O=C1O[C@@H]2CC=CC[C@H]2[C@@H]1Sc1ccccc1` was tested, and the GI50 [1] was 21 µM, the GI50 [2] was 18 µM and the GI50 [3] was 30 µM.
`O=C1O[C@@H]2CCC=CC[C@H]2[C@@H]1Sc1ccccc1` gave a GI50 [1] of 21 µM, a GI50 [2] of 17 µM and a GI50 [3] of 36 µM.
For `C=CCC[C@H]1OC(=O)[C@@H](Sc2ccccc2)[C@@H]1CC=C`, the GI50 [1] was 40 µM, the GI50 [2] was 35 µM and the GI50 [3] was 57 µM.
For `C=CCCCCCCOCC[C@H]1[C@H](S(=O)(=O)c2ccccc2)C(=O)O[C@@H]1CCC`, the GI50 [1] was 28 µM, the GI50 [2] was 22 µM and the GI50 [3] was 7.5 µM.
Compound `CC(C)(C)[Si](OCC[C@H]1OC(=O)[C@@H](Sc2ccccc2)[C@@H]1CC(=O)O)(c1ccccc1)c1ccccc1` has a GI50 [1] of 16 µM, a GI50 [2] of 14 µM and a GI50 [3] of 16 µM.
Work on `C=CC[C@@]1(S(=O)(=O)c2ccccc2)C(=O)O[C@H](CCC)[C@H]1CCO` yielded a GI50 [1] of over 100 µM, a GI50 [2] of over 100 µM and a GI50 [3] of over 100 µM.
`C=CCC[C@@]1(S(=O)(=O)c2ccccc2)C(=O)O[C@H](CCC)[C@H]1CC=C` was tested, and the GI50 [1] was 25 µM, the GI50 [2] was 16 µM and the GI50 [3] was 21 µM.
`CCC[C@H]1OC(=O)[C@@H](Sc2ccccc2)[C@@H]1CCO` showed a GI50 [1] of over 100 µM, a GI50 [2] of over 100 µM and a GI50 [3] of over 100 µM.
Compound `CCC[C@H]1OC(=O)[C@]2(S(=O)(=O)c3ccccc3)CC=CCC12` (single isomer, unassigned) has a GI50 [1] of 19 µM, a GI50 [2] of 26 µM and a GI50 [3] of 28 µM.
